In ChEMBL document CHEMBL3272178, “Prepartion of 16alpha-alkoxy and 16alpha-acyloxy derivatives of 21-chloro-17-acyloxy corticosteroids and determination of their vasoconstrictor activities in humans” (J Med Chem, 1976) one finds Activity data, which are given here for five compounds.

The species named for assay [1] is Homo sapiens. Nature of the assay: Vasoconstrictor activity in human relative to betamethasone valerate. It counts as functional, organism-based.
The species entered for assay [2] is Homo sapiens. In words: Skin stripping in human by stripped-skin assay relative to betamethasone valerate. It is filed as functional, organism-based.

The structures appear in SMILES notation. Activity calls are given as the source filed them. The calls are words filed in the database; no cut-off is given here.

Turning to `CO[C@@H]1C[C@H]2[C@@H]3CCC4=CC(=O)CC[C@]4(C)[C@@]3(F)[C@@H](O)C[C@]2(C)[C@@]1(OC(C)=O)C(=O)CCl`, the result in assay [1] and in assay [2] was inactive.

With `CCC(=O)O[C@]1(C(=O)CCl)[C@H](OC(C)=O)C[C@H]2[C@@H]3CCC4=CC(=O)C=C[C@]4(C)[C@@]3(F)[C@@H](O)C[C@@]21C`, the outcome in assay [1] and in assay [2] was inactive.

For the compound `CCO[C@@H]1C[C@H]2[C@@H]3CCC4=CC(=O)CC[C@]4(C)[C@@]3(F)[C@@H](O)C[C@]2(C)[C@@]1(OC(C)=O)C(=O)CCl`, the outcome in assay [1] and in assay [2] was inactive.

As to `CCCCC(=O)O[C@]1(C(=O)CCl)[C@H](OC)C[C@H]2[C@@H]3CCC4=CC(=O)CC[C@]4(C)[C@@]3(F)[C@@H](O)C[C@@]21C`, the result in assay [1] and in assay [2] was inactive.

For the compound `CC(=O)O[C@@H]1C[C@H]2[C@@H]3CCC4=CC(=O)C=C[C@]4(C)[C@@]3(F)[C@@H](O)C[C@]2(C)[C@@]1(OC(C)=O)C(=O)CCl`, the result in assay [1] and in assay [2] was inactive.
